Assay [1] concerns the target isolated recombinant JAK1 kinase domain (Homo sapiens (Human), UniProt P23458). Nature of the assay: JAK1 enzyme assay (Caliper LabChip, peptide phosphorylation). In kind it is biochemical. The note with it: isolated recombinant JAK1 kinase domain, 25 μM ATP.
Assay [2] addresses isolated recombinant JAK2 kinase domain (Homo sapiens (Human), UniProt O60674). Nature of the assay: JAK2 enzyme assay (Caliper LabChip, peptide phosphorylation). Conditions: 25 μM ATP. The assay is classed as biochemical.
Assay [3] relates to JAK1-dependent STAT6 phosphorylation downstream of IL-13 stimulation in BEAS-2B human bronchial epithelial cells. In words: JAK1 pathway assay in BEAS-2B cells (IL-13-pSTAT6, MSD). The assay is classed as cell-based. Conditions: read-out: IL13-pSTAT6 EC50 (uM)_BEAS-2B. The protocol: JAK1 Pathway Assay in Cell Lines was Carried Out as Follows:
Inhibitor potency (EC50) was determined in cell-based assays designed to measure JAK1 dependent STAT phosphorylation.
In one assay approach, TF-1 human erythroleukemia cells obtained from the American Type Culture Collection (ATCC; Manassas, Va.) were used to measure JAK1-dependent STAT6 phosphorylation downstream of IL-13 stimulation. Prior to use in the assays, TF-1 cells were starved of GM-CSF overnight in OptiMEM medium (Life Technologies, Grand Island, N.Y.) supplemented with 0.5% charcoal/dextran stripped fetal bovine serum (FBS), 0.1 mM non-essential amino acids (NEAA), and 1 mM sodium pyruvate. The assays were run in 384-well plates in serum-free OptiMEM medium using 300,000 cells per well. In a second assay approach, BEAS-2B human bronchial epithelial cells obtained from ATCC were plated at 100,000 cells per well of a 96-well plate one day prior to the experiment. The BEAS-2B assay was run in complete growth medium (bronchial epithelial basal medium plus bulletkit; Lonza; Basel, Switzerland).
Test compounds were serially diluted 1:2 in DMSO and then diluted 1:50 in medium just before use. Diluted compounds were added to the cells, for a final DMSO concentration of 0.2%, and incubated for 30 min (for the TF-1 assay) or 1 hr (for the BEAS-2B assay) at 37° C. Then, cells were stimulated with human recombinant cytokine at their respective EC90 concentrations, as previously determined for each individual lot. Cells were stimulated with IL-13 (R&D Systems, Minneapolis, Minn.) for 15 min at 37° C. The TF-1 cell reactions were stopped by the direct addition of 10× lysis buffer (Cell Signaling Technologies, Danvers, Mass.), whereas the BEAS-2B cell incubations were halted by the removal of medium and addition of 1× lysis buffer. The resultant samples were frozen in the plates at −80° C. Compound mediated inhibition of STAT6 phosphorylation was measured in the cell lysates using MesoScale Discovery (MSD) technology (Gaithersburg, Md.).

The source of these data is patent US9346815B2, “5-chloro-2-difluoromethoxyphenyl pyrazolopyrimidine compounds, compositions and methods of use thereof” (Genentech, Inc., priority 2014, dated 2016).

isolated recombinant JAK1 kinase domain, sequence (P23458 875-1153): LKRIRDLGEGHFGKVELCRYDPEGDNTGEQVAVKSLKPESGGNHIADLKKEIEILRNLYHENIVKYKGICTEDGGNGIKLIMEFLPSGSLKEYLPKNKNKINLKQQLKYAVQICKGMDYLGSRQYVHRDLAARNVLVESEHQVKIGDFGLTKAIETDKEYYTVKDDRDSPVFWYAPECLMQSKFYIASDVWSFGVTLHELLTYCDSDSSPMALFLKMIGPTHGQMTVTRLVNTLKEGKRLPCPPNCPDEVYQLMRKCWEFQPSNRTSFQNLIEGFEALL
isolated recombinant JAK2 kinase domain, sequence (O60674 849-1124): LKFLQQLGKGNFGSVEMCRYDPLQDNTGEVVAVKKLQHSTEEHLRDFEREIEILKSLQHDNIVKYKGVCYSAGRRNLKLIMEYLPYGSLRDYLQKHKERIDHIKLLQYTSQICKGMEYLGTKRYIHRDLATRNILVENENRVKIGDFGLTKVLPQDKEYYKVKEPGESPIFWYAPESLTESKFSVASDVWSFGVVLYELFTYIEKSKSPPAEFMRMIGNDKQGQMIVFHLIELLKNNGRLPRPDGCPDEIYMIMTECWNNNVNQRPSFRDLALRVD

One may read the Ki as a measure of affinity in units of concentration, obtained from inhibition or displacement. As usually defined, the EC50 is the concentration at which the effect is half-maximal. With `CN(C)C(=O)CN(C)C1CCN(C(=O)Cn2cc(NC(=O)c3cnn4cccnc34)c(-c3cc(Cl)ccc3OC(F)F)n2)CC1` [Example 400, N-(3-(5-chloro-2-(difluoromethoxy)phenyl)-1-(2-(4-((2-(dimethylamino)-2-oxoethyl)(methyl)amino)piperidin-1-yl)-2-oxoethyl)-1H-pyrazol-4-yl)pyrazolo[1,5-a]pyrimidine-3-carboxamide], the inhibition constant Ki turned out to be 0.58 nM in assay [1] and 1.73 nM in assay [2]. Besides, the EC50 in assay [3] came to 0.0309 µM.
The corresponding values for `CN(CC1CCC(=O)O1)C1CCN(C(=O)Cn2cc(NC(=O)c3cnn4cccnc34)c(-c3cc(Cl)ccc3OC(F)F)n2)CC1` (stereo not drawn) [Example 344, N-[3-[5-chloro-2-(difluoromethoxy)phenyl]-1-[2-(4-[methyl[(5-oxooxolan-2-yl)methyl]amino]piperidin-1-yl)-2-oxoethyl]-1H-pyrazol-4-yl]pyrazolo[1,5-a]pyrimidine-3-carboxamide] are 0.7 nM, 1.9 nM and 0.0484 µM.
The corresponding values for `N#CCCNC1CCC(=CCn2cc(NC(=O)c3cnn4cccnc34)c(-c3cc(Cl)ccc3OC(F)F)n2)CC1` (stereo not drawn) [Example 421, N-(3-(5-chloro-2-(difluoromethoxy)phenyl)-1-(2-(4-(2-cyanoethylamino)cyclohexylidene)ethyl)-1H-pyrazol-4-yl)pyrazolo[1,5-a]pyrimidine-3-carboxamide] are 0.65 nM, 0.89 nM and 0.0498 µM.
The corresponding values for `O=C(Nc1cn(CCNCc2ccc(O)cc2)nc1-c1cc(Cl)ccc1OC(F)F)c1cnn2cccnc12` [Example 328, N-[3-[5-chloro-2-(difluoromethoxy)phenyl]-1-(2-[[(4-hydroxyphenyl)methyl]amino]ethyl)-1H-pyrazol-4-yl]pyrazolo[1,5-a]pyrimidine-3-carboxamide] are 0.21 nM, 0.23 nM and 0.0102 µM.
In the case of `O=C(Nc1cn(CCN2CCNCC2=O)nc1-c1cc(Cl)ccc1OC(F)F)c1cnn2cccnc12` [Example 417, N-(3-(5-chloro-2-(difluoromethoxy)phenyl)-1-(2-(2-oxopiperazin-1-yl)ethyl)-1H-pyrazol-4-yl)pyrazolo[1,5-a]pyrimidine-3-carboxamide], the Ki in assay [1] was determined as 2.91 nM; in assay [2], 1.37 nM. Moreover, the EC50 in assay [3] worked out at 0.0934 µM.
`CC(c1ccccc1)N1CCN(C(=O)Cn2cc(NC(=O)c3cnn4cccnc34)c(-c3cc(Cl)ccc3OC(F)F)n2)CC1` (stereo not drawn) [Example 316, N-[3-[5-chloro-2-(difluoromethoxy)phenyl]-1-[2-oxo-2-[4-(1-phenylethyl)piperazin-1-yl]ethyl]-1H-pyrazol-4-yl]pyrazolo[1,5-a]pyrimidine-3-carboxamide]: the Ki was determined as 0.48 nM in assay [1] and 1.04 nM in assay [2]. Moreover, the concentration giving a half-maximal response (EC50) in assay [3] worked out at 0.142 µM.
As to `CN(C)C(=O)CN1CCC(CN2CCN(C(=O)Cn3cc(NC(=O)c4cnn5cccnc45)c(-c4cc(Cl)ccc4OC(F)F)n3)CC2)CC1` [Example 428, N-(3-(5-chloro-2-(difluoromethoxy)phenyl)-1-(2-(4-((1-(2-(dimethylamino)-2-oxoethyl)piperidin-4-yl)methyl)piperazin-1-yl)-2-oxoethyl)-1H-pyrazol-4-yl)pyrazolo[1,5-a]pyrimidine-3-carboxamide], the values for the Ki in assay [1] and in assay [2] were 0.79 nM and 2.51 nM, respectively. In addition, in assay [3], the EC50 came to 0.0453 µM.
Turning to `CN1CCN(C2CCN(C(=O)Cn3cc(NC(=O)c4cnn5cccnc45)c(-c4cc(Cl)ccc4OC(F)F)n3)CC2)C(=O)C1` [Example 448, N-(3-(5-chloro-2-(difluoromethoxy)phenyl)-1-(2-(4-(4-methyl-2-oxopiperazin-1-yl)piperidin-1-yl)-2-oxoethyl)-1H-pyrazol-4-yl)pyrazolo[1,5-a]pyrimidine-3-carboxamide], the inhibitory constant (Ki) in assay [1] is 0.36 nM; in assay [2], 0.88 nM. For the same compound, the EC50 in assay [3] is 0.0425 µM.
On to `CN1CCN(C(=O)C2CCN(C(=O)Cn3cc(NC(=O)c4cnn5cccnc45)c(-c4cc(Cl)ccc4OC(F)F)n3)CC2)CC1` [Example 398, N-(3-(5-chloro-2-(difluoromethoxy)phenyl)-1-(2-(4-(4-methylpiperazine-1-carbonyl)piperidin-1-yl)-2-oxoethyl)-1H-pyrazol-4-yl)pyrazolo[1,5-a]pyrimidine-3-carboxamide], for which the inhibition constant Ki in assay [1] was 0.5 nM; in assay [2], 1.45 nM. Also, the EC50 in assay [3] was determined as 0.0183 µM.
The corresponding values for `O=C1CCC(Cn2cc(NC(=O)c3cnn4cccnc34)c(-c3cc(Cl)ccc3OC(F)F)n2)O1` (stereo not drawn) [Example 323] are 0.68 nM, 0.33 nM and 0.0209 µM.
Taken in the same sequence, the figures for `CN1CCN(C(=O)Cn2cc(NC(=O)c3cnn4cccnc34)c(-c3cc(Cl)ccc3OC(F)F)n2)CC1(C)C` [Example 378, N-[3-[5-chloro-2-(difluoromethoxy)phenyl]-1-[2-oxo-2-(3,3,4-trimethylpiperazin-1-yl)ethyl]-1H-pyrazol-4-yl]pyrazolo[1,5-a]pyrimidine-3-carboxamide] were 0.93 nM, 1.6 nM and 0.0874 µM.
The corresponding values for `N#CC1(NC2CCN(C(=O)Cn3cc(NC(=O)c4cnn5cccnc45)c(-c4cc(Cl)ccc4OC(F)F)n3)CC2)CC1` [Example 436, N-(3-(5-chloro-2-(difluoromethoxy)phenyl)-1-(2-(4-(1-cyanocyclo-propylamino)piperidin-1-yl)-2-oxoethyl)-1H-pyrazol-4-yl)pyrazolo[1,5-a]pyrimidine-3-carboxamide] are 0.25 nM, 0.75 nM and 0.0103 µM.
Regarding `O=C(Nc1cn(CC(=O)N2CCC(N3CCSCC3)CC2)nc1-c1cc(Cl)ccc1OC(F)F)c1cnn2cccnc12` [Example 434, N-(3-(5-chloro-2-(difluoromethoxy)phenyl)-1-(2-oxo-2-(4-thiomorpholinopiperidin-1-yl)ethyl)-1H-pyrazol-4-yl)pyrazolo[1,5-a]pyrimidine-3-carboxamide], the Ki in assay [1] was 0.31 nM; in assay [2] it was 0.67 nM. Moreover, the EC50 in assay [3] worked out at 0.0187 µM.
For `O=C(Nc1cn(CCN[C@@H]2CCOC2)nc1-c1cc(Cl)ccc1OC(F)F)c1cnn2cccnc12` [Example 402, N-(3-(5-chloro-2-(difluoromethoxy)phenyl)-1-(2-((R)-tetrahydrofuran-3-ylamino)ethyl)-1H-pyrazol-4-yl)pyrazolo[1,5-a]pyrimidine-3-carboxamide], the Ki was 0.83 nM in assay [1] and 0.4 nM in assay [2]. The concentration for a half-maximal effect (EC50) in assay [3] came out at 0.0187 µM.
Regarding `COC(=O)CCN(C)C1CCN(C(=O)Cn2cc(NC(=O)c3cnn4cccnc34)c(-c3cc(Cl)ccc3OC(F)F)n2)CC1` [Example 345, methyl 3-[[1-(2-[3-[5-chloro-2-(difluoromethoxy)phenyl]-4-[pyrazolo[1,5-a]pyrimidine-3-amido]-1H-pyrazol-1-yl]acetyl)piperidin-4-yl](methyl)amino]propanoate], the Ki came out at 0.59 nM in assay [1] and 1.47 nM in assay [2]. Besides, in assay [3], the concentration for a half-maximal effect (EC50) stood at 0.0166 µM.
Taken in the same sequence, the figures for `CCOC(=O)CCN(C)C1CCN(C(=O)Cn2cc(NC(=O)c3cnn4cccnc34)c(-c3cc(Cl)ccc3OC(F)F)n2)CC1` [Example 391, ethyl 3-[[1-(2-[3-[5-chloro-2-(difluoromethoxy)phenyl]-4-[pyrazolo[1,5-a]pyrimidine-3-amido]-1H-pyrazol-1-yl]acetyl)piperidin-4-yl](methyl)amino]propanoate] were 0.91 nM, 2.49 nM and 0.0206 µM.
The corresponding values for `O=C(Nc1cn(CC(=O)N2CCC(C(=O)OCC3CCNCC3)CC2)nc1-c1cc(Cl)ccc1OC(F)F)c1cnn2cccnc12` [Example 341, piperidin-4-ylmethyl 1-(2-[3-[5-chloro-2-(difluoromethoxy)phenyl]-4-[pyrazolo[1,5-a]pyrimidine-3-amido]-1H-pyrazol-1-yl]acetyl)piperidine-4-carboxylate] are 0.53 nM, 2.62 nM and 0.534 µM.
The corresponding values for `CSCCNCCn1cc(NC(=O)c2cnn3cccnc23)c(-c2cc(Cl)ccc2OC(F)F)n1` [Example 312, N-[3-[5-chloro-2-(difluoromethoxy)phenyl]-1-(2-[[2-(methylsulfanyl)ethyl]amino]ethyl)-1H-pyrazol-4-yl]pyrazolo[1,5-a]pyrimidine-3-carboxamide] are 0.4 nM, 0.32 nM and 0.0719 µM.
